These results are taken from ChEMBL document CHEMBL5104149, “Monoterpene substituted thiazolidin-4-ones as novel TDP1 inhibitors: Synthesis, biological evaluation and docking” (Bioorg Med Chem Lett, 2022).

Usually pIC50 stands for −log10 of the IC50, conventionally taken in molar units. As usually defined, the CC50 is the concentration at which the toxic effect on the cells reaches its halfway point. Low readings indicate greater toxicity to the cells, high ones lower toxicity to the cells.

pIC50: −log10 of the molar value. Activity calls are given as the source filed them. The rule behind the calls is not given here.

The target of data set [1] is Tyrosyl-DNA phosphodiesterase 1 (Homo sapiens, UniProt Q9NUW8). The data set can be described thus: Inhibition of recombinant human TDP1 measured by real-time oligonucleotide biosensor assay.
The nature of data set [2]: Cytotoxicity against human HeLa cells. It is filed as toxicity, cell-based.
The nature of data set [3]: Cytotoxicity against human HEK293-A cells. It is filed as toxicity, cell-based.
Data set [4] deals with HeLa. The data set can be described thus: Cytotoxicity against human HeLa cells at 10 uM in presence of 2 to 16 uM topotecan. It is filed as functional, cell-based.
Data set [5] relates to HeLa. The data set is described as follows: Synergistic cytotoxicity against human HeLa cells assessed as combination index at 20 uM in presence of 5 uM topotecan. In kind it is functional.
For data set [6], the system named is HeLa. The data set is described as follows: Synergistic cytotoxicity against human HeLa cells assessed as combination index at 5 uM in presence of 5 uM topotecan. In kind it is functional.

Chain of Tyrosyl-DNA phosphodiesterase 1 (Q9NUW8 whole entry): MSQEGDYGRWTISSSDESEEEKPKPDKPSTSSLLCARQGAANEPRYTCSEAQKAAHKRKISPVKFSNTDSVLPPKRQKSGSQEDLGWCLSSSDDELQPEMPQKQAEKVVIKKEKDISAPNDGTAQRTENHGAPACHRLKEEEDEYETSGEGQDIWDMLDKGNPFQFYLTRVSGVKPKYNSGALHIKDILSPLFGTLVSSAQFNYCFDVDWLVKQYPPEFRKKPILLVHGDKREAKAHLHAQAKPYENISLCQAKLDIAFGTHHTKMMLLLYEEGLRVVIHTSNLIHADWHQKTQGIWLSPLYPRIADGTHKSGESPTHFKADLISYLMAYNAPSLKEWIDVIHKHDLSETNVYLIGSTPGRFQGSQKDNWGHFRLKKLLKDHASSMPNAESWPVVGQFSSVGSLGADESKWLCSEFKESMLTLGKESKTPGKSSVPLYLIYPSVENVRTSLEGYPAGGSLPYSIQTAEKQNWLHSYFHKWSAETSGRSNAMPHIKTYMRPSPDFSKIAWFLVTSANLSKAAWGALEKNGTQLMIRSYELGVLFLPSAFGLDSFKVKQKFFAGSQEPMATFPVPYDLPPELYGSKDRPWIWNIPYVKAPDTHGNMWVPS

In the case of `CC1(C)C2CC=C(CC3SCC(=O)N3Cc3ccccc3)C1C2` (stereo not drawn), in data set [1], the negative-log IC50 (pIC50) was less than 4.00.
On the same count and under the same terms, the same measure for `CC(=O)C1=C(O)C=C2Oc3c(-c4csc(N/N=C/CC(C)CCC=C(C)C)n4)c(O)c(C)c(O)c3[C@@]2(C)C1=O` (stereo partly drawn): 7.80; for `COc1ccc(C2SCC(=O)N2Cc2ccccc2)cc1` (stereo not drawn): less than 4.00.
Same read-out and setting: in the case of `COc1cnc2c(c1)C(=O)c1c-2n(CCCNC2=NCCS2)c(=O)c2cc([N+](=O)[O-])ccc12` it was 4.92.
Still for that read-out and setting: the same measure for `CC(C)CCCC(C)CC1SCC(=O)N1Cc1ccccc1` (stereo not drawn): less than 4.00; for `CC(C)=CCCC(C)CC1SCC(=O)N1Cc1ccccc1` (stereo not drawn): less than 4.00.
Regarding `CC1(C)C2CC=C(COc3ccc(C4SCC(=O)N4Cc4ccccc4)cc3)C1C2` (stereo not drawn), in data set [1], the pIC50 is 5.80. Moreover, the cytotoxic concentration (CC50) in data set [2] worked out at 74 µM; in data set [3], 51 µM. For the same compound, in data set [4], the result was Active. Also, the CI in data set [5] was found to be 0.21.
With `CC1(C)C2CC=C(CCOc3ccc(C4SCC(=O)N4Cc4ccccc4)cc3)C1C2` (stereo not drawn), the pIC50 in data set [1] was 5.68. For the same compound, the CC50 in data set [2] and in data set [3] was more than 100 µM throughout. Moreover, in data set [4], the result was Active. For the same compound, the values for the CI in data set [6] and in data set [5] were 0.32 and 0.21, respectively.
As to `CC1=CC[C@@H](CC2SCC(=O)N2Cc2ccccc2)C1(C)C` (stereo partly drawn), the pIC50 in data set [1] is less than 4.00.
As for `CC(C)CCCC(C)CCOc1ccc(C2SCC(=O)N2Cc2ccccc2)cc1` (stereo not drawn), the pIC50 in data set [1] was 5.92. Besides, the CC50 in data set [2] was 66 µM; in data set [3], more than 100 µM. For the same compound, the result in data set [4] was Active. Further, the figures for the CI in data set [6] and in data set [5] were 0.51 and 0.29, respectively.
For `O=C1CSC(c2ccccc2)N1Cc1ccccc1` (stereo not drawn), the pIC50 in data set [1] is less than 4.00.
On the same count and under the same terms, the same measure for `CC1(C)C2CC=C(C3SCC(=O)N3Cc3ccccc3)C1C2` (stereo not drawn): less than 4.00; for `CC(C)=CCCC(C)CCOc1ccc(C2SCC(=O)N2Cc2ccccc2)cc1` (stereo not drawn): less than 4.00.
With `CC1=CC[C@@H](CCOc2ccc(C3SCC(=O)N3Cc3ccccc3)cc2)C1(C)C` (stereo partly drawn), the negative logarithm of the IC50 (pIC50) in data set [1] was 5.92. In addition, the CC50 is 79 µM in data set [2] and 90 µM in data set [3]. For the same compound, the outcome in data set [4] was Active. Also, the CI in data set [6] is recorded as 0.25; in data set [5] it was 0.16.
Consider `CC(C)=CCC/C(C)=C/COc1ccc(C2SCC(=O)N2Cc2ccccc2)cc1` (stereo not drawn), for which, in data set [1], the pIC50 is 5.54. In addition, the CC50 in data set [2] and in data set [3] was more than 100 µM throughout. In addition, the result in data set [4] was Active. Also, the CI in data set [5] was found to be 0.13.
